According to patent US20260174769A1, “MACROCYCLIC COMPOUNDS AND METHODS OF USE” (AMGEN INC., priority 2022, published 2026):

These molecules were tested against His-tagged KRAS G12D protein (Homo sapiens, UniProt P01116, G12D) (assay: KRAS G12D TR-FRET Assay). Details: TR-FRET binding.
Type: binding
Description: The His-tagged KRAS G12D protein (Amgen) was diluted to 20 nM in Assay Buffer (20 mM HEPES, pH 7.4, 10 mM MgCl2, 50 mM NaCl, 0.1% BSA, 0.01% Tween-20, 10 μM GDP) and 2 μL was added to the appropriate wells of the 384-well plate. The plate was incubated for 30 minutes at room temperature. Biotinylated KRPep-2d substrate (Amgen) was diluted to 20 nM in Assay Buffer and 2 μL was added to all wells and incubated for 1 hour at room temperature. Detection Reagent (0.4 nM LANCE Eu-W1024 Anti-6×His (Perkin Elmer AD0401), 5 nM streptavidin-d2 (Cisbio 610SADLA)) was prepared in Assay Buffer, then 4 μL was added to the plate and incubated for 1 hour at room temperature.

Chain of His-tagged KRAS G12D protein (P01116 1-188 isoform P01116-2 G12D): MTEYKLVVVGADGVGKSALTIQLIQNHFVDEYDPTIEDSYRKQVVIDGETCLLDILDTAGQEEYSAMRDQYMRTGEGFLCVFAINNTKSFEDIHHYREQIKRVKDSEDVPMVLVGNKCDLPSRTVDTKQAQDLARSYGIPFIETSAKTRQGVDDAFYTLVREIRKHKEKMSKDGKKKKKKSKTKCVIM

Row | IC50 [nM] | Structure (SMILES)
1 | 4480 | Cc1cc2[nH]ncc2c2c1CCCCO[C@H](C)[C@@H]1CN(CCO1)c1nc(OC[C@@]34CCCN3C[C@H](F)C4)nc3c(F)c-2ncc13 (single isomer, unassigned) [Example 243]
2 | 27 | Cc1cc2[nH]ncc2c2c1CCCCO[C@@H](C)[C@@H]1CN(CCO1)c1nc(OC[C@@]34CCCN3C[C@H](F)C4)nc3c(F)c-2ncc13 (single isomer, unassigned) [Example 244]
3 | 28 | C[C@H]1CCOC[C@H]2CN(CCO2)c2nc(OC[C@@]34CCCN3C[C@H](F)C4)nc3c(F)c(ncc23)-c2c(c(Cl)cc3[nH]ncc23)C1 (single isomer, unassigned) [Example 252]
4 | 9 | C[C@@H]1CCOC[C@H]2CN(CCO2)c2nc(OC[C@@]34CCCN3C[C@H](F)C4)nc3c(F)c(ncc23)-c2c(c(Cl)cc3[nH]ncc23)C1 (single isomer, unassigned) [Example 253]
5 | 6 | Fc1c2ncc3c(nc(OC[C@@]45CCCN4C[C@H](F)C5)nc13)N1CCO[C@]3(C1)C[C@@H](C3)OCCCCc1c(Cl)cc3[nH]ncc3c1-2 (single isomer, unassigned) [Example 261]

More lines, now with the values behind:

Row | Structure (SMILES) | IC50 [nM]
6 | Cc1cc2[nH]ncc2c2c1CCCCO[C@@H](C)[C@H]1CN(CCO1)c1nc(OC[C@@]34CCCN3C[C@H](F)C4)nc3c(F)c-2ncc13 (single isomer, unassigned) [Example 242] | 1140
7 | Fc1c2ncc3c(nc(OC[C@@]45CCCN4C[C@H](F)C5)nc13)N1CCC[C@@H](C1)c1coc(n1)CCCc1c(Cl)cc3[nH]ncc3c1-2 (single isomer, unassigned) [Example 245] | 583
8 | CN1C(=O)COCC[C@H]2CCc3cc4[nH]ncc4c(c32)-c2ncc3c(nc(OC[C@@]45CCCN4C[C@H](F)C5)nc3c2F)N2CCC[C@@H]1C2 (single isomer, unassigned) [Example 278] | 19300
9 | CN1C(=O)COCC[C@@H]2CCc3cc4[nH]ncc4c(c32)-c2ncc3c(nc(OC[C@@]45CCCN4C[C@H](F)C5)nc3c2F)N2CCC[C@@H]1C2 (single isomer, unassigned) [Example 279] | 333
10 | O=C1N[C@H]2C[C@@H](O)CN(C2)c2nc(OC[C@@]34CCCN3C[C@H](F)C4)nc3c(F)c(ncc23)-c2c(c(Cl)cc3[nH]ncc23)CCCO1 (single isomer, unassigned) [Example 285] | 1910
11 | CN1C(=O)OCCCc2c(Cl)cc3[nH]ncc3c2-c2ncc3c(nc(OC[C@@]45CCCN4C[C@H](F)C5)nc3c2F)N2C[C@@H](O)C[C@@H]1C2 (single isomer, unassigned) [Example 286] | 81
12 | Cc1cc2[nH]ncc2c2c1CCCOC(=O)N[C@]1(C)CCCCN(C1)c1nc(OC[C@@]34CCCN3C[C@H](F)C4)nc3c(F)c-2ncc13 (single isomer, unassigned) [Example 292] | 4
13 | Cc1cc2[nH]ncc2c2c1CCCOC(=O)N[C@@]1(C)CCCCN(C1)c1nc(OC[C@@]34CCCN3C[C@H](F)C4)nc3c(F)c-2ncc13 (single isomer, unassigned) [Example 293] | 50000
14 | Fc1c2ncc3c(nc(OC[C@@]45CCCN4C[C@H](F)C5)nc13)N1CCCC[C@@H](C1)c1cnn(n1)CCCc1c(Cl)cc3[nH]ncc3c1-2 (single isomer, unassigned) [Example 295] | 2250
15 | Fc1c2ncc3c(nc(OC[C@@]45CCCN4C[C@H](F)C5)nc13)N1CCCC[C@H](C1)c1cnn(n1)CCCc1c(Cl)cc3[nH]ncc3c1-2 (single isomer, unassigned) [Example 296] | 4
16 | Fc1c2ncc3c(nc(OC[C@@]45CCCN4C[C@H](F)C5)nc13)N1CCOC[C@@H](C1)c1cnn(n1)CCCc1c(Cl)cc3[nH]ncc3c1-2 (single isomer, unassigned) [Example 297] | 8070
17 | Fc1c2ncc3c(nc(OC[C@@]45CCCN4C[C@H](F)C5)nc13)N1CCOC[C@H](C1)c1cnn(n1)CCCc1c(Cl)cc3[nH]ncc3c1-2 (single isomer, unassigned) [Example 298] | 7
